The record followed here is article PMC7836466, “Putative ligand binding sites of two functionally characterized bark beetle odorant receptors” (BMC Biology, 2021).

The structures appear in SMILES notation.

Assay [1] relates to T1, ItypOR46.
T1 construct: gene OR46; full-length, N-terminal V5 tag; with ItypOrco
In words: calcium fluorescence assay in TREx/HEK293 cells; also Xenopus oocyte two-electrode voltage clamp; site-directed mutagenesis. Type of assay: cell-based, Ips typographus.

Another assay deals with T2, ItypOrco (Ips typographus, UniProt A0A7L8XYY7).
T2 construct: full-length, N-terminal c-Myc tag
T2 sequence (A0A7L8XYY7 1-480): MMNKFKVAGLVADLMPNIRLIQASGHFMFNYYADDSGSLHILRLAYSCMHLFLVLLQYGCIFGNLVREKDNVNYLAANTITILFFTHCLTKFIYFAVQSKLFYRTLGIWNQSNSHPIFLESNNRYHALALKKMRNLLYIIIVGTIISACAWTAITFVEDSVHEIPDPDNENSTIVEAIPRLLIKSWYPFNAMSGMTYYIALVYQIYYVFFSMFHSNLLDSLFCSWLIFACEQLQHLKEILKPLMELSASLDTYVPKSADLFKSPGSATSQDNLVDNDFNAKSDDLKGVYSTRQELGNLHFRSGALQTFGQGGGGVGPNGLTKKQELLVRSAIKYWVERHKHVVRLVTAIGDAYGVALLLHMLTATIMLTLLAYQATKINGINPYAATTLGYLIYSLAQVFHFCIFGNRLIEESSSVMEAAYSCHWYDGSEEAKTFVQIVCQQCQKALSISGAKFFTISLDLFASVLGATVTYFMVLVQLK
The assay can be described thus: calcium fluorescence dose-response in TREx/HEK293 cells expressing only ItypOrco. Type of assay: cell-based.

A further assay has as its target T3, ItypOR49 (Ips typographus, UniProt A0A7L8XYT4).
T3 construct: gene OR49; full-length, N-terminal V5 tag; with ItypOrco
T3 sequence (A0A7L8XYT4 1-406): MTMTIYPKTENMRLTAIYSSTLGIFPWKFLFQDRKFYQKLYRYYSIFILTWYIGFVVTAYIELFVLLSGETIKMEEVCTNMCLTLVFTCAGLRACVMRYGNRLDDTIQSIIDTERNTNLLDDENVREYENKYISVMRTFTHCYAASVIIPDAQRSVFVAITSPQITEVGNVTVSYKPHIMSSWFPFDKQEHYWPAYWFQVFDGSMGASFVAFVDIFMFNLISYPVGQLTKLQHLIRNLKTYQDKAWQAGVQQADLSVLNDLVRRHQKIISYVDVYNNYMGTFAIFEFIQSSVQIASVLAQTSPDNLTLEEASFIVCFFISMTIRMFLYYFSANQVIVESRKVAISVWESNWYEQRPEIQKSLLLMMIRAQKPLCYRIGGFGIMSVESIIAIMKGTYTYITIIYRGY
T3 sequence (A0A7L8XYY7 1-480 partner): T2 sequence (A0A7L8XYY7 1-480)
In words: calcium fluorescence dose-response in TREx/HEK293 cells. In kind it is cell-based.

For assay [2], the target named is T4, ItypOR46 (Ips typographus, UniProt A0A7L8XZ66).
T4 construct: with ItypOrco
T4 sequence (A0A7L8XZ66 1-408): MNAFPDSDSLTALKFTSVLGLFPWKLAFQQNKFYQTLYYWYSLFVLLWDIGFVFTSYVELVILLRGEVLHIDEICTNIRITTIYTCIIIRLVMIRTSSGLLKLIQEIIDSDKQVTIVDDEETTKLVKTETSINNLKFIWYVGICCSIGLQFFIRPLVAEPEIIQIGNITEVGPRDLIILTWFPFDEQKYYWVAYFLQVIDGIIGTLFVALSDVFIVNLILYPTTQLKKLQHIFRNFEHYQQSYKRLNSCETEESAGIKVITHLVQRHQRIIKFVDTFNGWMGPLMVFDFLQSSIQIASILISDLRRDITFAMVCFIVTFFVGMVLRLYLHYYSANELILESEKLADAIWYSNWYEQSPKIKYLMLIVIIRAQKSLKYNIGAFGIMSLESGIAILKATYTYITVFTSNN
In words: two-electrode voltage clamp dose-response in Xenopus oocytes (secondary response; not significant in HEK cells). Type of assay: cell-based.

`C=CC(=C)C[C@@H](O)CC(C)C` [(S)-(−)-ipsenol]: the EC50 in the assay on ItypOR46 [1] turned out to be 1.98 µM.

For `CCc1ccc(NC(=O)CSc2nnc(-c3cccnc3)n2CC)cc1` [VUAA1], the half-maximal effective concentration (EC50) at ItypOrco was 24.5 µM.

Take `C=CC(=C)C[C@@H](O)C=C(C)C` [(R)-(−)-ipsdienol]: the EC50 at ItypOR49 worked out at 9.47 µM. Besides, at ItypOR46 [2], the “two-electrode voltage clamp dose-response in Xenopus oocytes (secondary response)” value is given as “secondary response of ItypOR46 to racemic ipsdienol is mainly triggered by the (R)-(−)-enantiomer”.
